Experimental data published in PMC8665364, “Phosphoinositide regulates dynamic movement of the S4 voltage sensor in the second repeat in two-pore channel 3” (The Journal of Biological Chemistry, 2021).
Where a chain is given by its changes, count along the chain named.

Key:
[1] = molecular target: T1, XtTPC3 (TPC3 from Xenopus tropicalis) (Xenopus tropicalis, UniProt A0A6I8S6D1, D511C); test: two-electrode voltage clamp, Cys-accessibility (activation rate); type: cell-based; conditions: covalent at introduced Cys511; 0.5 mM MTSES in ND-96, pH 7.4, room temperature; +135 mV pulses; PI(3,4)P2 present (after long depolarization); Xenopus oocytes
T1 construct: gene LOC100495031; full-length cDNA in pGEMHE, Xenopus laevis oocytes (cRNA); pCXN2 in HEK293T for gating charges; homodimer
T1 sequence (A0A6I8S6D1 1-779 D511C): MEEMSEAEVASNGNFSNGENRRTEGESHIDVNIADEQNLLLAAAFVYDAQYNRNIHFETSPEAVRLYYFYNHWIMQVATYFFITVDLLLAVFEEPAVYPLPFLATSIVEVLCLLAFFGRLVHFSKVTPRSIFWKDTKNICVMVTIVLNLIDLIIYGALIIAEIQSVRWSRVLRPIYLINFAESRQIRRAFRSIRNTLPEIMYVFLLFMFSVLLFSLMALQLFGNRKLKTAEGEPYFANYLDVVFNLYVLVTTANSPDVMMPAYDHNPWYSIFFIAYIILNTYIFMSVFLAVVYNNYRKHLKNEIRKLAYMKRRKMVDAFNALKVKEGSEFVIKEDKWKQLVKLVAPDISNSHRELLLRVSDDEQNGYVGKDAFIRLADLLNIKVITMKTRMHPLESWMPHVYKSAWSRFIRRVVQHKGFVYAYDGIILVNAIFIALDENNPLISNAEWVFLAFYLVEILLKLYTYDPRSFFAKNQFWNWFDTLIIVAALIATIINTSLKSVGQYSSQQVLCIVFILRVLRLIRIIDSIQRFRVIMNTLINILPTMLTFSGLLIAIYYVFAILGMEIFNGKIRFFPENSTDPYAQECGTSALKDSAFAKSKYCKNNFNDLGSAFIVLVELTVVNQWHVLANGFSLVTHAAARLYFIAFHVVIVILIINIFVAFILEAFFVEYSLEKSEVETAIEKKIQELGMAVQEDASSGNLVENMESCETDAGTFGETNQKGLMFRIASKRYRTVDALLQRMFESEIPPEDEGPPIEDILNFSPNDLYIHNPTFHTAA

[2] = molecular target: T2, XtTPC3 (TPC3 from Xenopus tropicalis) (Xenopus tropicalis, UniProt A0A6I8S6D1, R187Q/D511C); test: as above; type: cell-based; conditions: covalent at introduced Cys511; 0.5 mM MTSES in ND-96, pH 7.4, room temperature; +135 mV pulses; PI(3,4)P2 present (after long depolarization); Xenopus oocytes
T2 construct: gene LOC100495031; full-length cDNA in pGEMHE, Xenopus laevis oocytes (cRNA); pCXN2 in HEK293T for gating charges; homodimer
T2 sequence (A0A6I8S6D1 1-779 R187Q/D511C): T1 sequence (A0A6I8S6D1 1-779 D511C) with R187Q

Structure (SMILES): CS(=O)(=O)SCCS(=O)(=O)O [MTSES]
- MTSES-modification rate [1]: 0.043 ± 0.014 s⁻¹
- MTSES-modification rate [2]: 0.011 ± 0.005 s⁻¹
